From patent US10202378B2, “Therapeutic compounds and uses thereof” (GENENTECH, INC., priority 2015, dated 2019)

Columns and labels:
[1] = molecular target: TAF1-BD2 (Homo sapiens, UniProt P21675); assay: TAF1-BD2 TR-FRET Binding Assay; settings: read-out: TAF1-BD2 HTRF IC50
[2] = molecular target: TAF1-BD1 (Homo sapiens, UniProt P21675); assay: TAF1-BD1 TR-FRET Binding Assay; settings: read-out: TAF1-BD1 HTRF IC50

| IC50 [1] [nM] | IC50 [2] [nM] | SMILES |
| --- | --- | --- |
| 27.3 | 283 | Cc1[nH]c2c(=O)n(C)cc(C#CC(C)(C)O)c2c1C(=O)OC(C)(C)CC#N [Example 163, (2-cyano-1,1-dimethyl-ethyl) 4-(3-hydroxy-3-methyl-but-1-ynyl)-2,6-dimethyl-7-oxo-1H-pyrrolo[2,3-c]pyridine-3-carboxylate] |
| 181 | 770 | CCOC(=O)c1c(C)[nH]c2c(=O)n(C)cc(C#CC(C)(O)C3CCOCC3)c12 (stereo not drawn) [Example 87, ethyl 4-(3-hydroxy-3-tetrahydropyran-4-yl-but-1-ynyl)-2,6-dimethyl-7-oxo-1H-pyrrolo[2,3-c]pyridine-3-carboxylate] |
| 34.6 | 93.9 | Cc1[nH]c2c(=O)n(C)cc(C#CC(C)(O)C3CC3)c2c1C(=O)OCc1cccc2cccnc12 (stereo not drawn) [Example 105, 8-quinolylmethyl 4-(3-cyclopropyl-3-hydroxy-but-1-ynyl)-2,6-dimethyl-7-oxo-1H-pyrrolo[2,3-c]pyridine-3-carboxylate] |
| 169 | 3050 | C=CCCn1cc(C#C[C@@](C)(O)c2cc(C)on2)c2c(C(=O)OCC(C)C)c(C)[nH]c2c1=O [Example 125, isobutyl 6-but-3-enyl-4-[(3R)-3-hydroxy-3-(5-methylisoxazol-3-yl)but-1-ynyl]-2-methyl-7-oxo-1H-pyrrolo[2,3-c]pyridine-3-carboxylate] |
| 21.9 | 282 | CCOC(=O)c1c(C)[nH]c2c(=O)n(C)cc(C#CC3(O)CCCC3)c12 [Example 20, ethyl 4-[2-(1-hydroxycyclopentyl)ethynyl]-2,6-dimethyl-7-oxo-1H-pyrrolo[2,3-c]pyridine-3-carboxylate] |
| 133 | 2230 | C=CCCn1cc(C#CC(C)(O)C2CC2)c2c(C(=O)OCC)c(C)[nH]c2c1=O (stereo not drawn) [Example 46, ethyl 6-but-3-enyl-4-(3-cyclopropyl-3-hydroxy-but-1-ynyl)-2-methyl-7-oxo-1H-pyrrolo[2,3-c]pyridine-3-carboxylate] |
| 88.8 | 334 | Cc1[nH]c2c(=O)n(C)cc(C#CC(O)(c3ccccc3)C(F)(F)F)c2c1-c1nnc(CO)o1 (stereo not drawn) [Example 205, 3-(5-(hydroxymethyl)-1,3,4-oxadiazol-2-yl)-2,6-dimethyl-4-(4,4,4-trifluoro-3-hydroxy-3-phenyl-but-1-ynyl)-1H-pyrrolo[2,3-c]pyridin-7-one] |
| 85.4 | 632 | CCOC(=O)c1c(C)[nH]c2c(=O)n(C)cc(C#CC3(O)CC3)c12 [Example 18, ethyl 4-[2-(1-hydroxycyclopropyl)ethynyl]-2,6-dimethyl-7-oxo-1H-pyrrolo[2,3-c]pyridine-3-carboxylate] |
| 32.4 | 130 | Cc1[nH]c2c(=O)n(C)cc(C#CC(C)(O)c3ccccc3)c2c1C(=O)OCC(C)C (stereo not drawn) [Example 160, isobutyl 4-(3-hydroxy-3-phenyl-but-1-ynyl)-2,6-dimethyl-7-oxo-1H-pyrrolo[2,3-c]pyridine-3-carboxylate] |
| 40.8 | 295 | CC(=O)NCCCOC(=O)c1c(C)[nH]c2c(=O)n(C)cc(C#CC(O)(c3ccccc3)C(F)(F)F)c12 (stereo not drawn) [Example 135, 3-acetamidopropyl 2,6-dimethyl-7-oxo-4-(4,4,4-trifluoro-3-hydroxy-3-phenyl-but-1-ynyl)-1H-pyrrolo[2,3-c]pyridine-3-carboxylate] |
| 58.6 | 182 | CCOC(=O)c1c(C)[nH]c2c(=O)n(C)cc(C#CC(C)(O)CCc3ccccc3)c12 (stereo not drawn) [Example 23, ethyl 4-(3-hydroxy-3-methyl-5-phenyl-pent-1-ynyl)-2,6-dimethyl-7-oxo-1H-pyrrolo[2,3-c]pyridine-3-carboxylate] |
| 67.3 | 404 | CCOC(=O)c1c(C)[nH]c2c(=O)n(C)cc(C#CC(C)(O)COc3ccccc3)c12 (stereo not drawn) [Example 17, ethyl 4-(3-hydroxy-3-methyl-4-phenoxy-but-1-ynyl)-2,6-dimethyl-7-oxo-1H-pyrrolo[2,3-c]pyridine-3-carboxylate] |
| 86.4 | 521 | CC(=O)NCc1nnc(-c2c(C)[nH]c3c(=O)n(C)cc(C#CC(C)(O)C4CC4)c23)o1 (stereo not drawn) [Example 174, N-[[5-[4-(3-cyclopropyl-3-hydroxy-but-1-ynyl)-2,6-dimethyl-7-oxo-1H-pyrrolo[2,3-c]pyridin-3-yl]-1,3,4-oxadiazol-2-yl]methyl]acetamide] |
| 56.2 | > 2220 | CCOC(=O)c1c(C)[nH]c2c(=O)n(C)cc(C#Cc3ccccc3F)c12 [Example 59, ethyl 4-[2-(2-fluorophenyl)ethynyl]-2,6-dimethyl-7-oxo-1H-pyrrolo[2,3-c]pyridine-3-carboxylate] |
| 368 | 4900 | C=CCCn1cc(C#CC(C)(C)CO)c2c(C(=O)OCC)c(C)[nH]c2c1=O [Example 47, ethyl 6-but-3-enyl-4-(4-hydroxy-3,3-dimethyl-but-1-ynyl)-2-methyl-7-oxo-1H-pyrrolo[2,3-c]pyridine-3-carboxylate] |
| 29.4 | 116 | Cc1[nH]c2c(=O)n(C)cc(C#CC(C)(C)O)c2c1C(=O)OCc1ccccc1C#N [Example 110, (2-cyanophenyl)methyl 4-(3-hydroxy-3-methyl-but-1-ynyl)-2,6-dimethyl-7-oxo-1H-pyrrolo[2,3-c]pyridine-3-carboxylate] |
| 117 | 490 | CC(=O)NCc1nnc(-c2c(C)[nH]c3c(=O)n(C)cc(C#CC(O)(c4ccccc4)C(F)(F)F)c23)o1 (stereo not drawn) [Example 173, N-[[5-[2,6-dimethyl-7-oxo-4-(4,4,4-trifluoro-3-hydroxy-3-phenyl-but-1-ynyl)-1H-pyrrolo[2,3-c]pyridin-3-yl]-1,3,4-oxadiazol-2-yl]methyl]acetamide] |
| 74.7 | 271 | CCOC(=O)c1c(C)[nH]c2c(=O)n(C)cc(C#CC(O)(C3CC3)C(F)(F)F)c12 (stereo not drawn) [Example 45, ethyl 4-(3-cyclopropyl-4,4,4-trifluoro-3-hydroxy-but-1-ynyl)-2,6-dimethyl-7-oxo-1H-pyrrolo[2,3-c]pyridine-3-carboxylate] |
| 37.9 | 259 | Cc1[nH]c2c(=O)n(C)cc(C#CC(C)(C)O)c2c1C(=O)OCc1ccccc1CO [Example 111, [2-(hydroxymethyl)phenyl]methyl 4-(3-hydroxy-3-methyl-but-1-ynyl)-2,6-dimethyl-7-oxo-1H-pyrrolo[2,3-c]pyridine-3-carboxylate] |
| 47.7 | 232 | CCC(C)(C)OC(=O)c1c(C)[nH]c2c(=O)n(C)cc(C#C[C@@](C)(O)c3cc(C)on3)c12 [Example 139, 1,1-dimethylpropyl 4-[(3R)-3-hydroxy-3-(5-methylisoxazol-3-yl)but-1-ynyl]-2,6-dimethyl-7-oxo-1H-pyrrolo[2,3-c]pyridine-3-carboxylate] |
| 138 | 536 | CCOC(=O)c1c(C)[nH]c2c(=O)n(C)cc(C#CC(O)(CC)CC)c12 [Example 24, ethyl 4-(3-ethyl-3-hydroxy-pent-1-ynyl)-2,6-dimethyl-7-oxo-1H-pyrrolo[2,3-c]pyridine-3-carboxylate] |
| 36.5 | 267 | Cc1[nH]c2c(=O)n(C)cc(C#CC(O)(c3ccccc3)C(F)(F)F)c2c1C(=O)OC(C)(C)CC#N (stereo not drawn) [Example 136, (2-cyano-1,1-dimethyl-ethyl) 2,6-dimethyl-7-oxo-4-(4,4,4-trifluoro-3-hydroxy-3-phenyl-but-1-ynyl)-1H-pyrrolo[2,3-c]pyridine-3-carboxylate] |
| 86.2 | 385 | Cc1[nH]c2c(=O)n(C)cc(C#CC(O)(c3ccccc3)C(F)(F)F)c2c1-c1nnc(C(C)(C)C)o1 (stereo not drawn) [Example 188, 3-(5-tert-butyl-1,3,4-oxadiazol-2-yl)-2,6-dimethyl-4-(4,4,4-trifluoro-3-hydroxy-3-phenyl-but-1-ynyl)-1H-pyrrolo[2,3-c]pyridin-7-one] |
| 59.7 | > 20000 | C=CCCn1cc(C#CC(C)(C)O)c2c(C(=O)OCc3ccccc3C)c(C)[nH]c2c1=O [Example 124, o-tolylmethyl 6-but-3-enyl-4-(3-hydroxy-3-methyl-but-1-ynyl)-2-methyl-7-oxo-1H-pyrrolo[2,3-c]pyridine-3-carboxylate] |
| 38.3 | 241 | Cc1[nH]c2c(=O)n(C)cc(C#CC(C)(O)C3CC3)c2c1-c1nnc(C(C)CN2CCOCC2)o1 (stereo not drawn) [Example 176, 4-(3-cyclopropyl-3-hydroxy-but-1-ynyl)-2,6-dimethyl-3-[5-(1-methyl-2-morpholino-ethyl)-1,3,4-oxadiazol-2-yl]-1H-pyrrolo[2,3-c]pyridin-7-one] |
| 57.9 | 402 | CCOC(=O)c1c(C)[nH]c2c(=O)n(C)cc(C#Cc3ccsc3)c12 [Example 62, ethyl 2,6-dimethyl-7-oxo-4-[2-(3-thienyl)ethynyl]-1H-pyrrolo[2,3-c]pyridine-3-carboxylate] |
| 75.6 | 244 | Cc1[nH]c2c(=O)n(C)cc(C#CC(C)(O)C3CC3)c2c1C(=O)OC(C)C(C)C (stereo not drawn) [Example 141, 1,2-dimethylpropyl 4-(3-cyclopropyl-3-hydroxy-but-1-ynyl)-2,6-dimethyl-7-oxo-1H-pyrrolo[2,3-c]pyridine-3-carboxylate] |

| SMILES | IC50 [1] [nM] | IC50 [2] [nM] |
| --- | --- | --- |
| Cc1[nH]c2c(=O)n(C)cc(C#CC(C)(C)O)c2c1C1=NC(C(C)C)CO1 (stereo not drawn) [Example 202, 4-(3-hydroxy-3-methyl-but-1-ynyl)-3-(4-isopropyl-4,5-dihydrooxazol-2-yl)-2,6-dimethyl-1H-pyrrolo[2,3-c]pyridin-7-one] | 176 | 1230 |
| Cc1[nH]c2c(=O)n(C)cc(C#CC(C)(C)O)c2c1C(=O)O [Example 200, 4-(3-hydroxy-3-methyl-but-1-ynyl)-2,6-dimethyl-7-oxo-1H-pyrrolo[2,3-c]pyridine-3-carboxylic acid] | 13700 | 20000 |
| Cc1[nH]c2c(=O)n(C)cc(C#CC(C)(C)O)c2c1C(=O)OCc1ccccc1 [Example 103, Benzyl 4-(3-hydroxy-3-methyl-but-1-ynyl)-2,6-dimethyl-7-oxo-1H-pyrrolo[2,3-c]pyridine-3-carboxylate] | 34.5 | 151 |
